From patent US12465637B2, “Compositions and methods for modulation of antibody activity” (Institute for Cancer Research, priority 2019, dated 2025)

What was measured:
[1] = system: CTLA-4; assay: CTLA-4 sandwich ELISA (BioLegend); type: binding; conditions: compared with ipilimumab
Method: Two anti-CTLA-4 scFv constructs (3GSWT with -GG(GGSGG)3GG- linker (SEQ ID NO: 6) and 5GSWT with -GG(GGSGG)5GG- linker (SEQ ID NO: 7)) were generated based on ipilimumab. The activity of each scFv antibody construct was compared via a sandwich ELISA assay (BioLegend; San Diego, CA), according to the manufacturer's instruction.
The triple mutation (VLF98G/VHV37A/VHW110G) was introduced into the 5GSWT scFv construct. The ability of JK43 to rescue the triple mutant was then tested. Briefly, the ability of the wild-type (5GSWT scFv construct) and triple mutant constructs to bind CTLA-4 was tested in the presence or absence of JK43 using the above sandwich ELISA assay, according to the manufacturer's instructions.

[2] = system: 4D5Flu triple mutant (VLF98G/VHV37A/VHW110G); assay: Fluorescein fluorescence quenching, effector (JK43/analog) rescue of triple mutant; type: biochemical; conditions: effector titration; 500 nM triple mutant, 10 nM fluorescein, 1% DMSO
Method: For the protein titration experiment, samples were prepared by titrating varying concentrations of protein (WT or triple mutant) into PBS containing a final concentration of 10 nM fluorescein and 1% DMSO, with or without 100 μM JK43. For the JK43 titration experiment, samples were prepared by titrating varying concentrations of JK43 into PBS with a final concentration of 10 nM fluorescein, 1% DMSO and 500 nM protein (WT or triple mutant). For the SAR experiment, samples were prepared by adding 10 μM of JK43 analogs into PBS with a final concentration of 10 nM fluorescein, 1% DMSO and 500 nM triple mutant.
Fluorescence quenching experiments were carried out in a SpectraMax® i3x Multi-Mode Microplate Reader (Molecular Devices), using a Costar 96-well black round bottom plates, 200 μL reaction volume, excitation wavelength of 475 nm and emission wavelength of 525 nm, at a temperature of 27° C. Blank measurements containing all sample components except fluorescein were subtracted to remove background. All samples were normalized to a control of fluorescein alone (0% quenching) and buffer alone (100% quenching).

For “3GSWT: anti-CTLA-4 scFv based on ipilimumab with -GG(GGSGG)3GG- linker (SEQ ID NO: 22)”, the “Binding of CTLA-4 (FIG. 6B)” value [1] was “readily bind CTLA-4, albeit slightly less potently than ipilimumab”.
Work on `c1ccc(COc2ccc3cc[nH]c3c2)cc1` [JK25, 6-phenylmethoxy-1H-indole] yielded an EC50 [2] of 25 µM.
Compound `c1ccc(COc2ccc3cn[nH]c3c2)cc1` [JK43, 6-phenylmethoxy-1H-indazole] has an EC50 [2] of 16 µM.
